Test results: patent US20130102009A1, “SIRTUIN ACTIVATORS AND ACTIVATION ASSAYS” (priority 2010, published 2013)
pKd: −log10 of the molar value. “Also recorded” adds a separate entry of the source. Counter-ions that a name gives are not always drawn.

What was measured:
SIRT1(183-664) = target: T1, SIRT1(183-664) (Homo sapiens, UniProt Q96EB6); assay: ITC binding of STACs to SIRT1(183-664); details: dissociation constant of SRT:SIRT1 complex, read-out: Kx (μM), ITC
T1 construct: the truncated version used for biophysical studies SIRT1(183-664); made in house
T1 sequence (Q96EB6 183-664): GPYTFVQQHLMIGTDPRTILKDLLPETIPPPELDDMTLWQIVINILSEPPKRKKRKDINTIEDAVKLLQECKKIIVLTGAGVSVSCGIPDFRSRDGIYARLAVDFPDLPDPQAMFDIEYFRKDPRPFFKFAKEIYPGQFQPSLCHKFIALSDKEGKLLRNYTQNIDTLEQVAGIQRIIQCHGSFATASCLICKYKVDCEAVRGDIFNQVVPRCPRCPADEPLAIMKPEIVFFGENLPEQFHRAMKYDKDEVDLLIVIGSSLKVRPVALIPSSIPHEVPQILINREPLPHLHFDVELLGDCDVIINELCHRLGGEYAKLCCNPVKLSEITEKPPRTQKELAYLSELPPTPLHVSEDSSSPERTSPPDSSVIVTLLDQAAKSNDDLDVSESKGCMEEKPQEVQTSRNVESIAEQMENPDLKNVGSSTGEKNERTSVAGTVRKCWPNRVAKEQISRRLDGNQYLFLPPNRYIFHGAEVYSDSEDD
Procedure: All peptides were prepared by BioPeptide (San Diego, Calif.) and shown to be at least 95% pure by analytical HPLC analysis. Bovine glutamate dehydrogenase (GDH), α-ketoglutarate, NADH and NAD^+ were from Sigma Chemical Company. Full-length, human SIRT1 and the truncated version used for biophysical studies SIRT1(183-664) were prepared as described previously, and shown to have equivalent kinetic properties (Milne et al. (2007) Nature 450, 712-716). The nicotinamidase PNC1 was prepared as described by Denu and colleagues (Smith et al. (2009) Anal Biochem 394, 101-109). ITC experiments were performed using either a VP-ITC system or iTC200 system (MicroCal) at 26° C. in a buffer composed of 137 mM NaCl, 2.7 mM KCl, 1 mM MgCl2, 2 mM TCEP, 5% (v/v) glycerol and 50 mM HEPES-NaOH, pH 7.3. SIRT1(183-664) was purified and dialyzed against the buffer, centrifuged, and degassed before the experiment. The peptide and compounds were dissolved in the final dialysis buffer and their pH values were adjusted to match that of the protein solution. […] To characterize this interaction using the iTC200 system, 1 mM TAMRA-peptide was injected in 20 aliquots of 2 μL, (except the first injection, which was 0.5 μL) into a 0.202 mL sample cell containing 100 μM STAC. For STACs with poor solubility, the concentrations were adjusted accordingly. […] To characterize the interaction of a STAC with SIRT1(183-664) on the VP-ITC system, 100 μM enzyme was injected in 35 aliquots of 8 μL, (except the first injection, which was 2 μL) into a 1.47 mL sample cell containing 10 μM STAC. […] In all cases, data was corrected for the heat of dilution and fitted using a nonlinear least-squares routine using a single-site binding model with Origin for ITC v7.0383 (Microcal) with the stoichiometry (n), the enthalpy of the reaction (ΔH) and the association constant (Ka) calculated.

TAMRA-peptide = assay: ITC binding of STACs to TAMRA-peptide; details: 26° C.; for pKd: pH 7.3, read-out: Kd for the binding of activator to TAMRA-peptide
Procedure: ITC experiments were performed using either a VP-ITC system or iTC200 system (MicroCal) at 26° C. in a buffer composed of 137 mM NaCl, 2.7 mM KCl, 1 mM MgCl2, 2 mM TCEP, 5% (v/v) glycerol and 50 mM HEPES-NaOH, pH 7.3. SIRT1(183-664) was purified and dialyzed against the buffer, centrifuged, and degassed before the experiment. The peptide and compounds were dissolved in the final dialysis buffer and their pH values were adjusted to match that of the protein solution. […] To characterize this interaction using the iTC200 system, 1 mM TAMRA-peptide was injected in 20 aliquots of 2 μL, (except the first injection, which was 0.5 μL) into a 0.202 mL sample cell containing 100 μM STAC. For STACs with poor solubility, the concentrations were adjusted accordingly. […] In all cases, data was corrected for the heat of dilution and fitted using a nonlinear least-squares routine using a single-site binding model with Origin for ITC v7.0383 (Microcal) with the stoichiometry (n), the enthalpy of the reaction (ΔH) and the association constant (Ka) calculated.

Compound | Kd (SIRT1(183-664)) [µM] | Kd for the binding of activator to TAMRA-peptide (TAMRA-peptide; pH 7.3) | pKd (TAMRA-peptide)
CN(C)Cc1cnc2sc(-c3ccccc3NC(=O)c3cnc4ccccc4n3)nc2c1 [Compound 2, N-(2-(6-((dimethylamino)methyl)thiazolo[5,4-b]pyridin-2-yl)phenyl)quinoxaline-2-carboxamide] | 0.32 | – | –
Cc1nc(-c2cccnc2)sc1C(=O)Nc1ccccc1-c1cn2c(CN3CC4CC3CN4)csc2n1 (stereo not shown) [Compound 4, N-(2-(3-(2,5-diazabicyclo[2.2.1]heptan-2-ylmethyl)imidazo[2,1-b]thiazol-6-yl)phenyl)-4-methyl-2-(pyridin-3-yl)thiazole-5-carboxamide] | 3 | no detectable binding; also recorded: lack of binding | < 4.00
CCCCc1nc(NC2CCNCC2)cc(C(=O)Nc2ccccc2-c2nc3cc(COC4CCNCC4)cnc3s2)n1 [Compound 10, 2-butyl-6-(piperidin-4-ylamino)-N-(2-(6-((piperidin-4-yloxy)methyl)thiazolo[5,4-b]pyridin-2-yl)phenyl)pyrimidine-4-carboxamide] | – | – | 5.60
CN(C)CCCNc1cc(-c2nc3c(NC(=O)c4ccc(CN5CCNCC5)cc4)cccc3[nH]2)ccn1 [Compound 14, N-(2-(2-(3-(dimethylamino)propylamino)pyridin-4-yl)-1H-benzo[d]imidazol-4-yl)-4-(piperazin-1-ylmethyl)benzamide trihydrochloride] | 0.43 | – | –
COc1cc(C(=O)Nc2ccccc2-c2cn3c(CN4CCNCC4)csc3n2)cc(OC)c1OC [SRT1460] | – | – | 3.85
